For 13 compounds, IC50 and inhibition results are on record in patent US10590106B2, “Certain chemical entities, compositions, and methods” (NeuPharma, Inc., priority 2012, dated 2020).

One test concerns A549 cells. In words: Inhibition of cancer cell growth, MTT or MTS assay, A549. In kind it is cell-based. The settings on record: Homo sapiens, 72 h incubation. Here is the method: (§1) Inhibition of cell growth by compounds was measured using MTT or MTS assay. Tumor cell lines were purchased from ATCC (American Type Culture Collection, Manassas, Va.). All cell lines were maintained in RPMI 1640 (Hyclone) supplemented with 10% fetal bovine serum (FBS, Hyclone), glutamine (2 mM, Hyclone), and antibiotics (penicillin 100 U/mL and streptomycin 50 μg/mL) at 37° C. in a humidified atmosphere of 5% CO2 in air. Taxol (as a positive control, Sigma) and compounds were dissolved in DMSO (Sigma), and the final concentration of DMSO in the medium was 1%. Tumor cells were plated in 96-well plates at densities of about 2000 (A375) or 4000 (A549 and Colo205) cells/well of a 96-well plate and allowed to adhere/grow for 24 h. They were then treated with various concentrations of drug and incubated for 72 h. For MTT method, medium was then removed by inverting and tapping the plates. 100 μL of MTT (0.5 mg/ml) was added to each well followed by an incubated at 37° C. for 4 h. MTT was then removed and 200 μL of DMSO was added to each well, and the ODs at 570 nm were measured after a 5 second shaking cycle in a 96-well spectrophotometer. For MTS method, 20 μL MTS (CellTiter 96 Aqueous One Solution, Promega) was added to each well followed by an incubated at 37° C. for 2-4 h, solutions were then directly put in a 96-well spectrophotometer, and the ODs at 490 nm were measured.
(§2) All concentrations of compounds were tested in triplicate and controls were averaged over 4 wells. IC50 was calculated by plotting the concentration of compound vs the percentage of inhibition in treated wells using GraphPad Prism 5. […] The scale utilized in Tables […] is as follows: +++ less than 1000 nM; ++ between 1000 nM and 5000 nM; and + greater than 5000 nM. The scale utilized in Table 8 is as follows: +++ less than 2000 nM; ++ between 2000 nM and 5000 nM; and + greater than 5000 nM.
A general note: Formazan colour is commonly taken as a measure of viable cells.

The target in the next test is BRAF V600E (Homo sapiens (Human), UniProt P15056, V600E). Kind of test: Inhibitory activity against kinase BRAF V600E, Z'-LYTE method (Invitrogen). In kind it is biochemical. Particulars: for inhibition at 1 µM: 1 μM compound, read-out: Inhibition (% inhibition at 1 μM) against BRAF V600E. The procedure: Inhibitory activities Inhibitory activities of compounds against BRAF, and BRAF V600E were measured by Invitrogen using Z′-LYTE® Method as briefly described in the following. 4× Test compounds are dissolved in 1% DMSO. […] ATP solutions are diluted to a 4×ATP working concentration in Kinase Buffer (50 mM HEPES pH 7.5, 0.01% BRIJ-35, 10 mM MgCl2, 1 mM EGTA). Reaction started by 30-second shaking of mixture consisting of 2.5 μL 4× test compound, […] and 2.5 μL 4×ATP Solution on Bar-coded Corning, low volume NBS, black 384-well plate (Corning Cat. #3676). Then the mixture was incubated for 60-minute at room temperature for the kinase reaction, followed by addition of 5 μL of a 1:1024 dilution of development reagent A and 30-second plate shake. The mixture was then incubated for another 60-minute at room temperature for development reaction. Fluorescence was read by plate reader. IC50 was calculated by plotting the concentration of compound vs the percentage of inhibition in treated wells using GraphPad Prism 5.
BRAF V600E, sequence (P15056 whole entry V600E): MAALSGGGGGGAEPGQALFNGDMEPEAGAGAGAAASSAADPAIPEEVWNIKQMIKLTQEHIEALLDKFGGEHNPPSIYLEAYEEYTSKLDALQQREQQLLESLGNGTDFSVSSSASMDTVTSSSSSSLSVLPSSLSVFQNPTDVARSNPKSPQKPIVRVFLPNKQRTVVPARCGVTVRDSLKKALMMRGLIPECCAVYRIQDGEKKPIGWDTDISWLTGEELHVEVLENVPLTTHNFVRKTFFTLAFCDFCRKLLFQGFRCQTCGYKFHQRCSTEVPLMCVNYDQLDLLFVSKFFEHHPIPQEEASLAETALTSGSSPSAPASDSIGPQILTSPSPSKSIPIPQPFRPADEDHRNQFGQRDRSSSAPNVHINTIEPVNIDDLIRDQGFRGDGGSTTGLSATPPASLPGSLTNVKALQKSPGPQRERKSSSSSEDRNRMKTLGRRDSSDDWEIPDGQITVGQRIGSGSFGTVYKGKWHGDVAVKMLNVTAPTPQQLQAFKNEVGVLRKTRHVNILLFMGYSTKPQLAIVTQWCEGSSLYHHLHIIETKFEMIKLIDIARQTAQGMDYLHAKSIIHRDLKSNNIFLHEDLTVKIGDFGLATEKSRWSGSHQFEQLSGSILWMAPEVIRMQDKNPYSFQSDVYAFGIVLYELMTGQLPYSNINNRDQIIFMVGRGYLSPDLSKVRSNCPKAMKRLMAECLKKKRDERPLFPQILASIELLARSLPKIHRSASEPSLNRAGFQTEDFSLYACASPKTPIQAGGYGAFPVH
Table 2 and 3 show % inhibition at 1 μM of several compounds of the invention against BRAF and BRAF V600E, respectively, using Z′-LYTE® method.
The scale utilized in Table 4 is as follows: +++ less than 100 nM; and ++ greater than 100 nM.

Another test has as its target KDR (VEGFR2) (Homo sapiens (Human), UniProt P35968). Kind of test: Inhibitory activity against kinase KDR, Z'-LYTE method (Invitrogen). Format: biochemical. The settings on record: for inhibition at 1 µM: 1 μM compound, read-out: Inhibition (% inhibition at 1 μM) against KDR. The procedure: Inhibitory activities of compounds against KDR (VEGFR2) were also measured by Invitrogen using Z′-LYTE® Method as described above with the following modification. The 2× KDR (VEGFR2)/Tyr 01 mixture is prepared in 50 mM HEPES pH 7.5, 0.01% BRIJ-35, 10 mM MgCl2, 1 mM EGTA. The final 10 μL Kinase Reaction consists of 0.5-11.7 ng KDR (VEGFR2) and 2 μM Tyr 01 in 50 mM HEPES pH 7.5, 0.01% BRIJ-35, 10 mM MgCl2, 1 mM EGTA. After the 1 hour Kinase Reaction incubation, 5 μL of a 1:256 dilution of Development Reagent B is added.
The scale utilized in Table 5 is as follows: +++ less than 100 nM; and ++ greater than 100 nM

For the next test, the system named is A375 cells. In words: Inhibition of cancer cell growth, MTT or MTS assay, A375. Format: cell-based. Particulars: Homo sapiens, A-375; 72 h incubation. The procedure: as §1, §2

In general, IC50 refers to the midpoint of a concentration-inhibition curve. The low end stands for greater potency in that assay, the high end for weaker potency in that assay. Broadly, the inhibition is the relative decrease from the control value, in per cent.

KDR (VEGFR2), sequence (P35968 20-1356): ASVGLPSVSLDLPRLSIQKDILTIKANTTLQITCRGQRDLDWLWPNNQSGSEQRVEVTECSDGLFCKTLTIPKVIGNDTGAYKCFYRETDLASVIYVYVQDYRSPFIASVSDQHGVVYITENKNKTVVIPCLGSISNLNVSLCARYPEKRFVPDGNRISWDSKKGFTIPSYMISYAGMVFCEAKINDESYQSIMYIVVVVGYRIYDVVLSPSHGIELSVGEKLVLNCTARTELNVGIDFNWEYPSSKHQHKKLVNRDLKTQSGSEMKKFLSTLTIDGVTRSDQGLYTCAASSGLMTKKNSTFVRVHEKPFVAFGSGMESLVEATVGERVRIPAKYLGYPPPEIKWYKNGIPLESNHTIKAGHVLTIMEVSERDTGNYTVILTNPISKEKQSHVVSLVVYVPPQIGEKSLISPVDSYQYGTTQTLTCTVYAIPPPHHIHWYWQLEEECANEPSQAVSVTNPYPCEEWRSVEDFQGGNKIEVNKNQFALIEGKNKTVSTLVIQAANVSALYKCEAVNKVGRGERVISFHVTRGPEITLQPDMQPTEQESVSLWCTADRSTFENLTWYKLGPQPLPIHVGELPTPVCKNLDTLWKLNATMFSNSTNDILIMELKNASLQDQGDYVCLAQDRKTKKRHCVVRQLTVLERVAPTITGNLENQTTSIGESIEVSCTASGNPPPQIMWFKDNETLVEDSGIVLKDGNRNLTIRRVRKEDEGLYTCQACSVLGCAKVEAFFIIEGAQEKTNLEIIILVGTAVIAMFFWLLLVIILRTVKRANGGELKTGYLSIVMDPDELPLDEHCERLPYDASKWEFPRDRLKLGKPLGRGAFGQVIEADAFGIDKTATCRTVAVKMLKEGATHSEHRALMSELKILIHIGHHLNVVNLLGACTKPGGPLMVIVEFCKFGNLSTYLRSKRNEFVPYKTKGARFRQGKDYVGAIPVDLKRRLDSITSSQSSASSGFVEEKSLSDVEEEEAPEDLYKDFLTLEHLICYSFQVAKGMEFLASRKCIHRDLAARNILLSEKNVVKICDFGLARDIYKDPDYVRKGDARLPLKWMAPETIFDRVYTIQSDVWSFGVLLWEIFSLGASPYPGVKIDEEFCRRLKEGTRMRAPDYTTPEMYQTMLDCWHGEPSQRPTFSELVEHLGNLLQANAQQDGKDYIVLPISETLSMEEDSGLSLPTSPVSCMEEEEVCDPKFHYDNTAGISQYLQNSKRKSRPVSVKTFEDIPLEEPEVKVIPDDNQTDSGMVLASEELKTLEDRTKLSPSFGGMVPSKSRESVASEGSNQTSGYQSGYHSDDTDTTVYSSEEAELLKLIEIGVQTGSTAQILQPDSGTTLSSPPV

Compound `O=C(Nc1cc(F)cc(F)c1)Nc1cccc(Oc2ccc3ncc(N4CCOCC4)nc3c2)c1` [Compound C045, 1-(3,5-difluorophenyl)-3-(3-((3-morpholinoquinoxalin-6-yl)oxy)phenyl)urea] yielded an IC50 in the test on A549 cells greater than 5 µM. The results for the inhibition at 1 µM at BRAF V600E and at KDR (VEGFR2) were 70 to 89% and less than 70%, respectively.
The matching figures for `O=C(Nc1cccc(F)c1)Nc1cccc(Oc2ccc3ncc(N4CCNCC4)nc3c2)c1` [Compound C037, 1-(3-fluorophenyl)-3-(3-((3-(piperazin-1-yl)quinoxalin-6-yl)oxy)phenyl)urea]: greater than 5 µM, greater than 89% and 70 to 89%.
Take `O=C(Nc1ccc(Cl)cc1)Nc1ccc(Oc2ccc3ncc(N4CCOCC4)nc3c2)cc1` [Compound C085, 1-(4-chlorophenyl)-3-(4-((3-morpholinoquinoxalin-6-yl)oxy)phenyl)urea]: the inhibition at 1 µM on BRAF V600E lay within 70 to 89%.
In the test with A549 cells, `O=C(Nc1ccc(Oc2ccc3ncc(O)nc3c2)cc1)Nc1ccc(Cl)c(C(F)(F)F)c1` [Compound C103, 1-(4-chloro-3-(trifluoromethyl)phenyl)-3-(4-((3-hydroxyquinoxalin-6-yl)oxy)phenyl)urea] displayed a concentration for half-maximal inhibition (IC50) greater than 5 µM.
In the case of `CCCS(=O)(=O)Nc1cc(F)cc(Oc2ccc3ncc(N4CCOCC4)nc3c2)c1` [Compound C030, N-(3-fluoro-5-((3-morpholinoquinoxalin-6-yl)oxy)phenyl)propane-1-sulfonamide], in the test with A375 cells, the half-maximal inhibitory concentration (IC50) was greater than 5 µM.
`O=C(Nc1cccc(Oc2ccc3nccnc3c2)c1)NC1CC1` [Compound C072, 1-cyclopropyl-3-(3-(quinoxalin-6-yloxy)phenyl)urea] had an IC50 in the test with A375 cells greater than 5 µM.
Compound `O=C(Nc1ccc(F)c(Cl)c1)Nc1ccc(F)c(Oc2ccc3ncc(N4CCOCC4)nc3c2)c1` [Compound C056, 1-(3-chloro-4-fluorophenyl)-3-(4-fluoro-3-((3-morpholinoquinoxalin-6-yl)oxy)phenyl)urea] registered an IC50 in the test on A549 cells greater than 5 µM. Also, the inhibition at 1 µM is greater than 89% on BRAF V600E and 70 to 89% at KDR (VEGFR2).
`O=C(Nc1ccc(Cl)cc1)Nc1ccc(F)c(Oc2ccc3ncc(N4CCOCC4)nc3c2)c1` [Compound C057, 1-(4-chlorophenyl)-3-(4-fluoro-3-((3-morpholinoquinoxalin-6-yl)oxy)phenyl)urea]: the inhibition at 1 µM is greater than 89% on BRAF V600E and 70 to 89% on KDR (VEGFR2).
`O=C(Nc1cccc(F)c1)Nc1cccc(Oc2ccc3ncc(N4CCOCC4)nc3c2)c1` [Compound C042, 1-(3-fluorophenyl)-3-(3-((3-morpholinoquinoxalin-6-yl)oxy)phenyl)urea] came in with a half-maximal inhibitory concentration (IC50) in the test on A549 cells greater than 5 µM. Besides, the figures for the inhibition at 1 µM on BRAF V600E and at KDR (VEGFR2) were greater than 89% and 70 to 89%, respectively.
In turn, `O=C(Nc1cccc(Cl)c1)Nc1ccc(F)c(Oc2ccc3ncc(N4CCOCC4)nc3c2)c1` [Compound C055, 1-(3-chlorophenyl)-3-(4-fluoro-3-((3-morpholinoquinoxalin-6-yl)oxy)phenyl)urea] showed an IC50 in the test on A549 cells greater than 5 µM. The inhibition at 1 µM on BRAF V600E was greater than 89%; on KDR (VEGFR2) it was 70 to 89%.
As to `O=C(Nc1ccc(Cl)cc1)Nc1ccc(Oc2ccc3nccnc3c2)c(F)c1` [Compound C102, 1-(4-chlorophenyl)-3-(3-fluoro-4-(quinoxalin-6-yloxy)phenyl)urea], at BRAF V600E, the inhibition at 1 µM lay within 70 to 89%.
Turning to `O=C(Nc1ccc(Cl)c(F)c1)Nc1ccc(F)c(Oc2ccc3ncc(N4CCOCC4)nc3c2)c1` [Compound C058, 1-(4-chloro-3-fluorophenyl)-3-(4-fluoro-3-((3-morpholinoquinoxalin-6-yl)oxy)phenyl)urea], the IC50 in the test with A549 cells is 2 to 5 µM. The inhibition at 1 µM at BRAF V600E was greater than 89%; on KDR (VEGFR2), 70 to 89%.
Turning to `COc1ccc(NC(=O)Nc2cccc(Oc3ccc4nccnc4c3)c2)cc1` [Compound C069, 1-(4-methoxyphenyl)-3-(3-(quinoxalin-6-yloxy)phenyl)urea], the IC50 on BRAF V600E and against KDR (VEGFR2) was less than 0.1 µM each time.
